The source of these data is patent US8664397B2, “Pyrrolopyridine-2-carboxylic acid amide derivative useful as inhibitor of glycogen phosphorylase” (Prosidion Limited, priority 2004, dated 2014).

For series [1] the following is noted: thermogravimetric method, nitrogen flow, 5° C./min heating rate. As to the method: Thermogravimetric analysis was performed as follows: A sample of the material (ca. 4-5 mg) was heated in a platinum vessel using slow inert gas (nitrogen) flow with 5° C./min heating rate using Derivatograph C instrument.
Thermal stability data on the product of Example 1 were obtained by the thermogravimetric method described above.

The target of series [2] is T1, Rabbit muscle glycogen phosphorylase a (Oryctolagus cuniculus, UniProt P00489).
T1 construct: purchased Sigma P1261; host or cells: rabbit muscle
T1 sequence (P00489 2-843 limits assumed): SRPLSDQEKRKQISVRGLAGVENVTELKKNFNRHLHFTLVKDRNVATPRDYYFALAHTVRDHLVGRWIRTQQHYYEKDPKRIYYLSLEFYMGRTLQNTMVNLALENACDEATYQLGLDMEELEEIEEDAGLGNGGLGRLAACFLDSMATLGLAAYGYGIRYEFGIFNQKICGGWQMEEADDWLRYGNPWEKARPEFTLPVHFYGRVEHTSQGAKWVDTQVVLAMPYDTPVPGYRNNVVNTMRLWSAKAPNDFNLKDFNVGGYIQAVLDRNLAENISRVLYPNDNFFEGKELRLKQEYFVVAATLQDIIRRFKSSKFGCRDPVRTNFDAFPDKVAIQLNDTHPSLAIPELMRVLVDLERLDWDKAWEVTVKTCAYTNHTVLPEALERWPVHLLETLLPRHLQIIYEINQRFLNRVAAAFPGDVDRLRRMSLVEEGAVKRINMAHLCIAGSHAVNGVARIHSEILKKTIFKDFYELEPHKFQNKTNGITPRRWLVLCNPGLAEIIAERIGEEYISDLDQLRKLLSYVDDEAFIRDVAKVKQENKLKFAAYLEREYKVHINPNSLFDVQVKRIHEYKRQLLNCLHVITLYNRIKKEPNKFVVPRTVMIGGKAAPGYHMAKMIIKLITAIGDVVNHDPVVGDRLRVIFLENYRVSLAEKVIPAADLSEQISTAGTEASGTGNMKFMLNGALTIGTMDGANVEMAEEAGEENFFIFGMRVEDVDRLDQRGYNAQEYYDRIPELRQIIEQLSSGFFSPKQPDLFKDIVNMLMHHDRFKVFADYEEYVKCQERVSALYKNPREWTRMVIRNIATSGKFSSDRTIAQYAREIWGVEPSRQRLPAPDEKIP
The series is described as follows: Glycogen phosphorylase assay in vitro (reverse direction, malachite green phosphate detection). As to conditions: 50 mM Hepes pH 7.2, 7.5 mM glucose, 0.5 mM glucose-1-phosphate, 1 mg/mL glycogen, 30° C. for 30 min. It counts as biochemical. The source says:
α-D-Glucose-1-phosphate (disodium salt), Glycogen, D-Glucose, Malachite Green Hydrochloride, Ammonium Molybdate tetrahydrate, BSA, HEPES and rabbit muscle phosphorylase a (P1261) were purchased from Sigma. All other reagents were analytical grade.
An assay for glycogen phosphorylase activity in the reverse direction was developed based on the method described by Engers et al., Can. J. Biochem., 1970, 48, 746-754]. Rabbit muscle glycogen phosphorylase a (Sigma) was reconstituted at a stock concentration of 100 μg/mL in 25 mM Tris/HCl. […] in a 96-well plate in a final volume of 100 μL containing 50 mM Hepes pH 7.2, 7.5 mM glucose, 0.5 mM glucose-1-phosphate and 1 mg/mL glycogen. After incubation at 30° C. for 30 min, the inorganic phosphate released from glucose-1-phosphate was measured by the addition of 150 μL of malachite green/molybdate solution prepared as follows: 5 mL of 4.2% ammonium molybdate in 4N HCl, 15 mL of 0.045% malachite green, 50 μL of Tween 20. Following a 30 min incubation at room temperature, the absorbance was measured at 620 nm. For IC50 determination, 10 μL of a serial dilution of compound (100 μM to 0.004 μM) in DMSO was added to each reaction in duplicate with the equivalent concentration of DMSO added to the control uninhibited reaction. Dose response curves were then obtained by plotting % inhibition versus log10 compound concentration. […]

As to `Cl.O=C(N[C@@H](Cc1ccc(F)cc1)C(=O)N1CCC(O)CC1)c1cc2cc(Cl)ncc2[nH]1` [Example 1], the “Thermal stability (temperature below which the substance appeared to be stable)” value in series [1] is “below 190 °C”.

`O=C(N[C@@H](Cc1ccc(F)cc1)C(=O)N1CCC(O)CC1)c1cc2cc(Cl)ncc2[nH]1` [Formula (I), 5-chloro-1H-pyrrolo[2,3-c]pyridine-2-carboxylic acid [1-(S)-(4-fluorobenzyl)-2-(4-hydroxypiperidin-1-yl)-2-oxoethyl]amide] had a half-maximal inhibitory concentration (IC50) in series [2] of less than 1000 µM.
